From PubChem BioAssay (NCI)
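Interpolation was linear, between the two tested concentrations surrounding the appropriate level; five concentrations were tested over 48 hours in 96-well plates. Abbreviation: GI50, concentration required for 50% inhibition of growth. TGI: concentration producing complete growth inhibition.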

Columns and labels:
Assay in all cases: DTP human tumour cell line panel, 48 h
SW-620 colon = test system: SW-620 colon
M14 melanoma = test system: M14 melanoma
OVCAR-4 ovarian = test system: OVCAR-4 ovarian
KM12 colon = test system: KM12 colon
CCRF-CEM leukemia = test system: CCRF-CEM leukemia
NCI-H522 lung = test system: NCI-H522 lung
MALME-3M melanoma = test system: MALME-3M melanoma
K-562 leukemia = test system: K-562 leukemia
T-47D breast = test system: T-47D breast
PC-3 prostate = test system: PC-3 prostate

Row | Structure (SMILES) | TGI (SW-620 colon) | TGI (M14 melanoma) | TGI (OVCAR-4 ovarian) | TGI (KM12 colon) | TGI (CCRF-CEM leukemia) | TGI (NCI-H522 lung) | TGI (MALME-3M melanoma) | TGI (K-562 leukemia) | TGI (T-47D breast) | TGI (PC-3 prostate) | GI50 (SW-620 colon) | GI50 (NCI-H522 lung) | GI50 (OVCAR-4 ovarian) | GI50 (MALME-3M melanoma) | GI50 (K-562 leukemia)
1 | O=c1cccccc1[O-].O=c1cccccc1[O-].[O]=[U+2]=[O] | > 100 µM | 73.2 µM | 57 µM |  |  |  |  |  |  |  |  |  |  |  | 
2 | O=C(OCN1C(=O)C2C3C=CC(C2C1=O)C1C2C(=O)N(COC(=O)C4CCCN4)C(=O)C2C31)C1CCCN1 (stereo not given) | > 72.2 µM | > 100 µM | > 100 µM | > 100 µM | 53.5 µM | > 100 µM | > 100 µM | > 100 µM |  |  |  |  |  |  | 
3 | Cc1nn(-c2ccccc2)c(C)c1/C=N/N=C1\SCC(=O)N1c1ccccc1 | > 100 µM | 60.7 µM | 41.7 µM | 94.7 µM | > 100 µM |  | 57.9 µM | > 100 µM | > 100 µM | 51.5 µM |  |  |  |  | 
4 | CNC(=O)OCc1c(CO)nc(SC)n1C | > 100 µM |  | > 100 µM | > 100 µM | > 100 µM | > 100 µM | > 100 µM | > 100 µM |  |  |  |  |  |  | 
5 | O=C(/C=C/c1ccccc1)NNC(=O)c1c(Cl)c(Cl)c(Cl)c(Cl)c1-c1nc2ccccc2[nH]1 | > 100 µM | 83.5 µM | > 100 µM |  | 75.8 µM | 63.4 µM | 59.1 µM | > 100 µM | 60.6 µM | > 100 µM |  |  |  |  | 
6 | COc1cc2c(cc1O)CC[C@@H]1[C@@H]2CC[C@]2(C)[C@@H](OCCN(C)C)CC[C@@H]12 | 0.763 µM |  | 5.84 µM |  |  | 1.3 µM | 0.753 µM | 0.685 µM |  |  | 0.163 µM | 0.341 µM | 0.306 µM | 0.155 µM | 0.15 µM
7 | COc1cc2c(ccc3c4cc(OC)c(OC)cc4c[n+](C)c23)cc1O | > 47.3 µM |  | > 65.8 µM | > 75 µM | 34.6 µM | 1.86 µM | 66.4 µM | > 75 µM |  |  |  |  |  |  | 
8 | CCN(CC(=O)O)C(=O)c1cccnc1 | > 100 µM | > 100 µM | > 100 µM | > 100 µM |  | > 100 µM | > 100 µM | > 100 µM | > 100 µM | > 100 µM |  |  |  |  | 
9 | CCC(C)C1=C(OC(C)=O)[N+]2([O-])Oc3ccc(-c4c(OC(C)=O)c(OC(C)=O)c(-c5ccc(OC(C)=O)cc5)c(OC(C)=O)c4OC(C)=O)cc3OC2(C(C)CC)C(=O)N1OC(C)=O (stereo not given) | > 50 µM | > 50 µM | 38 µM | > 50 µM | 39.3 µM | 17.5 µM | > 50 µM | 39.7 µM | 24.8 µM | > 50 µM |  |  |  |  | 
10 | O=C(C[n+]1ccc2ccccc2c1)c1ccc2ccc3ccccc3c2c1 | 13.1 µM | 10.6 µM | 19.7 µM | 11.5 µM | 4.78 µM | 21.8 µM | 22.2 µM | 1.99 µM | 19.3 µM | 15.3 µM |  |  |  |  | 
11 | CC1=CC(=O)c2ccccc2C1=O | 4.82 µM | 15.8 µM | 9.54 µM | 23 µM | 5.76 µM | 11.7 µM | 10.9 µM |  | 5.33 µM | 16.4 µM |  |  |  |  | 
12 | C[C@H](CCC(=O)O)[C@H]1CC[C@@]2(C)[C@@H]3C(=O)C[C@H]4C(C)(C)[C@@H](O)CC[C@]4(C)[C@H]3C(=O)C[C@]12C | > 100 µM | > 100 µM | > 100 µM | > 100 µM | > 100 µM | > 100 µM | > 100 µM | > 100 µM | > 100 µM | > 100 µM |  |  |  |  | 
13 | CCOC(=O)C1=NN(c2ccc(C)cc2)C2=CC(C)=NN(C)C(=S)N21 | > 100 µM | > 100 µM | > 100 µM | > 100 µM | > 100 µM | 36.5 µM |  | > 100 µM | 61.3 µM | > 100 µM |  |  |  |  | 
14 | O=C(/C=C/c1ccc(O)c(-c2cc(C(=O)/C=C/c3ccc(O)cc3)c(O)cc2O)c1)c1ccc(O)cc1O | > 50 µM | > 50 µM | > 50 µM | 31.7 µM | 37.3 µM | > 50 µM | > 50 µM | 35.1 µM | > 50 µM | > 50 µM |  |  |  |  | 
15 | CC1CC[C@@]2(OC1)OC1C[C@H]3[C@@H]4CC=C5CC(OC6OC(CO)C(OC7OC(CO)C(O)C(OC8OCC(O)C(O)C8O)C7OC7OC(CO)C(O)C(O)C7O)C(O)C6O)CCC5(C)[C@H]4CCC3(C)C1[C@@H]2C (stereo not given in full) | 8.3 µM | 17.1 µM | 17.4 µM | 10.5 µM | 12.1 µM | 9.69 µM | > 25 µM | 17.7 µM | 11.9 µM | 7.45 µM |  |  |  |  | 
16 | Cc1c(N2C(=O)CS(=O)(=O)C2c2cccc(Oc3ccccc3)c2)c(=O)n(-c2ccccc2)n1C (stereo not given) | > 100 µM | > 100 µM | 66.3 µM | > 100 µM | > 100 µM | > 100 µM | 60 µM | > 100 µM | > 100 µM | > 100 µM |  |  |  |  | 
17 | COc1ccc2c(c1)[nH]c1c(/C=C/c3ccccc3)nccc12 | 91.9 µM | 35.3 µM | > 100 µM | 41.2 µM | > 100 µM | 29 µM | 31.5 µM | > 100 µM | > 100 µM | 38.9 µM |  |  |  |  | 
